Starred links: 1 amine or outer side, 2 acyl side, 3 side chain; linkers in the order of their positions; H or OH if unused. Non-standard residues stand in square brackets, D forms with d. Residues, ends and D or L forms follow the SMILES beside them. *: point of attachment. C20 diacid = O=C(O)CCCCCCCCCCCCCCCCCCC(=O)*; γGlu = O=C(O)[C@H](CCC(=O)[*:2])N[*:1]; βAsp = O=C(O)[C@H](CC(=O)[*:2])N[*:1]; Hyp = O=C(O)[C@@H]1C[C@@H](O)CN1
Target: T1, human amylin receptors (Homo sapiens, UniProt O60896+P30988)
T1 construct: host or cells: CHO-K1/Ga15/AMY3 cells, further stably transfected with a CRE-luciferase plasmid
T1 sequence (P30988 25-474): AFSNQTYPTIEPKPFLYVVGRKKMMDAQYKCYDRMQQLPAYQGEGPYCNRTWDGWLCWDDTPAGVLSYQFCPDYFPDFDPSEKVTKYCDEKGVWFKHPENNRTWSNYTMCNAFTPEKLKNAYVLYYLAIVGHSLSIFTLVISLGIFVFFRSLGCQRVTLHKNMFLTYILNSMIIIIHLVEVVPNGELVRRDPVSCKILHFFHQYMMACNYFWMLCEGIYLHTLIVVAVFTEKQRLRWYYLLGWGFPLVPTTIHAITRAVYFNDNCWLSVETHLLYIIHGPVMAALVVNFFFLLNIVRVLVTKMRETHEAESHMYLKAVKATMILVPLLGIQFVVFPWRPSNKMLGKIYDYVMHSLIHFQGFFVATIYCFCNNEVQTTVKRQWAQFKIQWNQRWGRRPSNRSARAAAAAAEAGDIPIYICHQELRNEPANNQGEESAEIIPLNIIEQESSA
T1 sequence (O60896 24-148 partner): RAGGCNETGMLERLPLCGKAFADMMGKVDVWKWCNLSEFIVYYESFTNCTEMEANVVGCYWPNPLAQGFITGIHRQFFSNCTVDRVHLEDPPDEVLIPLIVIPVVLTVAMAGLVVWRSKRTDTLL
Assay: Luciferase assay in stably transfected amylin receptor/CRE-luc CHO cell line
Format: cell-based
Settings: for Relative activity: EC50 ratio of Cagrilintide to the compound, Cagrilintide 100%; for EC50: amylin receptor/CRE-luc CHO cells, 24 hours incubation, luminescence
From the text: The objective of this assay is to test the potency of derivatives of polypeptides of the present application on human amylin receptors in vitro using a luciferase assay. Using the standard protocol, CHO-K1/Ga15/AMY3 cells (purchased from GenScript, with the calcitonin receptor and the receptor activity modifying peptide (RAMP) constructed already) were transfected with a plasmid containing a luciferase expression cassette driven by multiple copies of cAMP response elements (CREs). The cells were cultured in an F12 medium containing 200 μg/mL Zeocin, 2 μg/mL puromycin, 100 μg/mL hygromycin, and 400 μg/mL G418 to afford a stably transfected amylin receptor/CRE-luc cell line. The lyophilized powder from Example 1 was dissolved in 20 mM phosphate buffer solution with a pH of 7.0, and diluted in a growth medium (F12 culture medium containing 10% FBS) to give a derivative sample with an initial concentration of 10 nM, which was then subjected to a 5-fold serial dilution in the growth medium to obtain seven samples with concentrations between […]. In each well of a white 96-well plate, 50 μL of the tested sample solution was added with a corresponding concentration. The stably transfected amylin receptor/CRE-luc CHO cells were resuspended in the growth medium at a certain density, and 50 μL of the cell suspension was added at a density of about 20000 cells per well to the white 96-well plate containing the tested sample solution. After incubation of 24 hours at 37° C. and 5% CO2, 100 μL of a Luciferase substrate was added to each well, incubated for 3 minutes, and finally was tested for luminescence on SpectraMax L (Molecular Devices) with the software SoftMax Pro 7.0.3 GxP.

Row | Relative activity [%] | EC50 [nM] | SMILES
1 | 78 | 0.034 | CC[C@H](C)[C@H](NC(=O)[C@H](CC(=O)O)NC(=O)[C@H](CCCNC(=N)N)NC(=O)[C@H](CC(=O)O)NC(=O)[C@H](CCCNC(=N)N)NC(=O)[C@H](CC(=O)O)NC(=O)[C@@H](NC(=O)[C@H](Cc1ccccc1)NC(=O)[C@H](Cc1c[nH]cn1)NC(=O)[C@H](CCCNC(=N)N)NC(=O)[C@H](CC(C)C)NC(=O)[C@H](Cc1ccccc1)NC(=O)[C@H](CC(=O)O)NC(=O)[C@H](C)NC(=O)[C@H](CC(C)C)NC(=O)[C@H](CCCNC(=N)N)NC(=O)[C@H](CCC(N)=O)NC(=O)[C@@H](NC(=O)[C@H](C)NC(=O)[C@H](C)NC(=O)[C@@H](NC(=O)[C@H](CO)NC(=O)[C@H](CC(C)C)NC(=O)[C@H](CCC(N)=O)NC(=O)[C@H](CO)NC(=O)[C@H](C)NC(=O)C[C@H](NC(=O)CCCCCCCCCCCCCCCCCCC(=O)O)C(=O)O)[C@@H](C)O)[C@@H](C)O)[C@@H](C)O)C(=O)N[C@@H](CC(C)C)C(=O)N1CCC[C@H]1C(=O)N1CCC[C@H]1C(=O)N[C@H](C(=O)N[C@@H](CC(N)=O)C(=O)N[C@H](C(=O)NCC(=O)N[C@@H](CO)C(=O)N[C@@H](CC(N)=O)C(=O)N[C@H](C(=O)N1CCC[C@H]1C(N)=O)[C@@H](C)O)C(C)C)[C@@H](C)O [M12] ({C20 diacid-βAsp}-ASQLSTAATQRLADFLRHFTDRDRDILPPTNVGSNTP-NH2)
2 | 78 | 0.034 | CC[C@H](C)[C@H](NC(=O)[C@H](CC(=O)O)NC(=O)[C@H](CCCNC(=N)N)NC(=O)[C@H](CC(=O)O)NC(=O)[C@H](CCCNC(=N)N)NC(=O)[C@H](CC(=O)O)NC(=O)[C@@H](NC(=O)[C@H](Cc1ccccc1)NC(=O)[C@H](Cc1c[nH]cn1)NC(=O)[C@H](CCCNC(=N)N)NC(=O)[C@H](CC(C)C)NC(=O)[C@H](Cc1ccccc1)NC(=O)[C@H](CC(=O)O)NC(=O)[C@H](C)NC(=O)[C@H](CC(C)C)NC(=O)[C@H](CCCNC(=N)N)NC(=O)[C@H](CCC(N)=O)NC(=O)[C@@H](NC(=O)[C@H](C)NC(=O)[C@H](C)NC(=O)[C@@H](NC(=O)[C@H](CO)NC(=O)[C@H](CC(C)C)NC(=O)[C@H](CCC(N)=O)NC(=O)[C@H](CO)NC(=O)[C@H](C)NC(=O)[C@H](CC(=O)O)NC(=O)CCCCCCCCCCCCCCCCCCC(=O)O)[C@@H](C)O)[C@@H](C)O)[C@@H](C)O)C(=O)N[C@@H](CC(C)C)C(=O)N1CCC[C@H]1C(=O)N1CCC[C@H]1C(=O)N[C@H](C(=O)N[C@@H](CC(N)=O)C(=O)N[C@H](C(=O)NCC(=O)N[C@@H](CO)C(=O)N[C@@H](CC(N)=O)C(=O)N[C@H](C(=O)N1CCC[C@H]1C(N)=O)[C@@H](C)O)C(C)C)[C@@H](C)O [M13] ({C20 diacid}-DASQLSTAATQRLADFLRHFTDRDRDILPPTNVGSNTP-NH2)

The remaining lines, values behind:

Row | SMILES | Relative activity [%] | EC50 [nM]
3 | CC[C@H](C)[C@H](NC(=O)[C@@H]1CCCN1C(=O)[C@H](CCCCN)NC(=O)[C@H](CC(C)C)NC(=O)[C@H](CC(N)=O)NC(=O)[C@H](CC(N)=O)NC(=O)[C@H](CO)NC(=O)[C@H](CO)NC(=O)[C@H](Cc1c[nH]cn1)NC(=O)[C@H](CCCNC(=N)N)NC(=O)[C@H](CC(C)C)NC(=O)[C@H](Cc1ccccc1)NC(=O)[C@H](CC(=O)O)NC(=O)[C@H](C)NC(=O)[C@H](CC(C)C)NC(=O)[C@H](CCCNC(=N)N)NC(=O)CNC(=O)[C@H](CC(C)C)NC(=O)[C@H](C)NC(=O)[C@H](C)NC(=O)[C@@H](NC(=O)[C@H](CO)NC(=O)[C@H](CC(C)C)NC(=O)[C@H](CCC(=O)O)NC(=O)[C@H](CO)NC(=O)[C@H](C)NC(=O)CC[C@H](NC(=O)CCCCCCCCCCCCCCCCCCC(=O)O)C(=O)O)[C@@H](C)O)C(=O)N[C@@H](CC(C)C)C(=O)N1CCC[C@H]1C(=O)N1CCC[C@H]1C(=O)N[C@H](C(=O)N[C@@H](CC(N)=O)C(=O)N[C@H](C(=O)NCC(=O)N[C@@H](CO)C(=O)N[C@@H](CC(N)=O)C(=O)N[C@H](C(=O)N1C[C@H](O)C[C@H]1C(N)=O)[C@@H](C)O)C(C)C)[C@@H](C)O [M1] ({C20 diacid-γGlu}-ASELSTAALGRLADFLRHSSNNLKPILPPTNVGSNT[Hyp]-NH2) | 49 | 0.053
4 | CC[C@H](C)[C@H](NC(=O)[C@H](CC(=O)O)NC(=O)[C@H](CCCNC(=N)N)NC(=O)[C@H](CC(=O)O)NC(=O)[C@H](CCCNC(=N)N)NC(=O)[C@H](CC(=O)O)NC(=O)[C@@H](NC(=O)[C@H](Cc1ccccc1)NC(=O)[C@H](Cc1c[nH]cn1)NC(=O)[C@H](CCCNC(=N)N)NC(=O)[C@H](CC(C)C)NC(=O)[C@H](Cc1ccccc1)NC(=O)[C@H](CC(=O)O)NC(=O)[C@H](C)NC(=O)[C@H](CC(C)C)NC(=O)[C@H](CCCNC(=N)N)NC(=O)CNC(=O)[C@H](CC(C)C)NC(=O)[C@H](C)NC(=O)[C@H](C)NC(=O)[C@@H](NC(=O)[C@H](CO)NC(=O)[C@H](CC(C)C)NC(=O)[C@H](CCC(=O)O)NC(=O)[C@H](CO)NC(=O)[C@H](C)NC(=O)CC[C@H](NC(=O)CCCCCCCCCCCCCCCCCCC(=O)O)C(=O)O)[C@@H](C)O)[C@@H](C)O)C(=O)N[C@@H](CC(C)C)C(=O)N1CCC[C@H]1C(=O)N1CCC[C@H]1C(=O)N[C@H](C(=O)N[C@@H](CC(N)=O)C(=O)N[C@H](C(=O)NCC(=O)N[C@@H](CO)C(=O)N[C@@H](CC(N)=O)C(=O)N[C@H](C(=O)N1CCC[C@H]1C(N)=O)[C@@H](C)O)C(C)C)[C@@H](C)O [M3] ({C20 diacid-γGlu}-ASELSTAALGRLADFLRHFTDRDRDILPPTNVGSNTP-NH2) | 32 | 0.081
5 | CC[C@H](C)[C@H](NC(=O)[C@H](CC(=O)O)NC(=O)[C@H](CCCNC(=N)N)NC(=O)[C@H](CC(=O)O)NC(=O)[C@H](CCCNC(=N)N)NC(=O)[C@H](CC(=O)O)NC(=O)[C@@H](NC(=O)[C@H](Cc1ccccc1)NC(=O)[C@H](Cc1c[nH]cn1)NC(=O)[C@H](CCCNC(=N)N)NC(=O)[C@H](CC(C)C)NC(=O)[C@H](Cc1ccccc1)NC(=O)[C@H](CC(=O)O)NC(=O)[C@H](C)NC(=O)[C@H](CC(C)C)NC(=O)[C@H](CCCNC(=N)N)NC(=O)[C@H](CCC(N)=O)NC(=O)[C@@H](NC(=O)[C@H](C)NC(=O)[C@H](C)NC(=O)[C@@H](NC(=O)[C@H](CO)NC(=O)[C@H](CC(C)C)NC(=O)[C@H](CCC(N)=O)NC(=O)[C@H](CO)NC(=O)[C@H](C)NC(=O)[C@H](CCC(=O)O)NC(=O)CCCCCCCCCCCCCCCCCCC(=O)O)[C@@H](C)O)[C@@H](C)O)[C@@H](C)O)C(=O)N[C@@H](CC(C)C)C(=O)N1CCC[C@H]1C(=O)N1CCC[C@H]1C(=O)N[C@H](C(=O)N[C@@H](CC(N)=O)C(=O)N[C@H](C(=O)NCC(=O)N[C@@H](CO)C(=O)N[C@@H](CC(N)=O)C(=O)N[C@H](C(=O)N1CCC[C@H]1C(N)=O)[C@@H](C)O)C(C)C)[C@@H](C)O [M11] ({C20 diacid}-EASQLSTAATQRLADFLRHFTDRDRDILPPTNVGSNTP-NH2) | 110 | 0.004

Reference: patent publication US20260265329A1, “POLYPEPTIDE AND DERIVATIVE THEREOF, COMPOSITION, AND USE THEREOF” (HANGZHOU SCIWIND BIOSCIENCES CO., LTD., priority 2023, published 2026)
